# Test system: PKA
# Assay: PKA-PhosFluor fluorescence in transfected HEK-293 cells treated with drug
# Type: cell-based, human
# Conditions: HEK-293 cells transfected with PKA-PhosFluor; excitation 488 nm, emission 530 nm; 6 hr after addition of drug
# Procedure: PKA-PhosFluor and cat_PKA are transcribed from different plasmids maintained by separate antibiotic resistance genes. FIG. 2C and FIG. 2D show charcoal agar plates streaked with E. coli containing the two plasmids indicated in B. The control plate lacks IPTG (FIG. 2C) while the IPTG plate was treated with 1 mM IPTG for 24 hours (FIG. 2D). […] Graphs depict % fluorescence change (excitation 488 nm; emission 530 nm) measured using a microplate reader 6 hr after addition of the indicated drug. Error bars indicate ±SEM (n=6). FIG. 2F is a schematic diagram showing mechanism of action for each drug.
# Next, the ability of PKA-PhosFluor to monitor PKA activity in mammalian cells was examined. PKA activity is regulated by the level of cAMP, which itself, is regulated by other signaling pathways and cell growth (Uhler et al., 1986). […] All the drugs used have widely varying mechanisms of action (FIG. 2F).
row,SMILES,fluorescence of PKA-PhosFluor (% fluorescence change)
1,O=S(=O)(NCCNC/C=C/c1ccc(Br)cc1)c1cccc2cnccc12 [H89],reduced fluorescence
2,CC(C)Cn1c(=O)n(C)c(=O)c2[nH]cnc21 [IBMX],induced fluorescence
3,CCCCCCOC(=O)[C@]1(O)C[C@@H]2O[C@@]1(C)n1c3ccccc3c3c4c(c5c6ccccc6n2c5c31)C(=O)NC4 [KT-5720],reduced fluorescence
4,Nc1ncnc2c1ncn2[C@@H]1O[C@@H]2COP(O)(=S)O[C@H]2[C@H]1O (some centres unmarked) [Rp-cAMP],reduced fluorescence
5,Nc1ncnc2c1nc(Br)n2[C@@H]1O[C@@H]2COP(=O)(O)O[C@H]2[C@H]1O [br-cAMP],induced fluorescence

# — patent publication US20230064490A1, “FLUORESCENT PROTEIN BIOSENSOR FOR DETECTION OF KINASE ACTIVITY” (Lucidicor Inc., priority 2018, published 2023)
